Counter-ions that a name gives are not always drawn.

This assay deals with T1, human GPR4 (Homo sapiens, UniProt P46093).
T1 construct: expressed in transfected cells
The assay can be described thus: Cell-based assay for human GPR4 activity (pH-induced cAMP formation, HTRF). The settings on record: HeLa cells stably expressing human GPR4, pH-induced cAMP formation. As for the experimental part: a) Cell-Based Assay for Human GPR4 Activity
HeLa cells stably expressing human GPR4 were established by transfecting the cells with a construct containing the human GPR4 coding sequence. The cells were grown in DMEM/HAM's F12 medium supplemented with 10% fetal calf serum (FCS), 100 u/ml penicillin, 100 μg/ml streptomycin and 400 μg/ml G418 and 10 mM Hepes pH 8.0. pH-induced formation of cAMP was determined using the HTRF technology as provided by CisBio Inc. The cells were seeded in 384-well plates and cultured for 24 hours at 37° C., 5% CO2 before performing the assay. Medium was removed and 10 μl buffer A (HBS, 10 mM Hepes, pH 8, 2 mM IBMX) was added. For compound testing, buffer A with 2× concentrated compounds was used. Cells were incubated for 15 min at room temperature. 10 μl buffer B (HBS, 30 mM Hepes, specific pH) was added to reach the appropriate final pH for stimulation (see below) and incubation was continued for 15 min at room temperature. […] HBS: 130 mM NaCl, 0.9 mM NaH2PO4, 5.4 mM KCl, 0.8 mM MgSO4, CaCl2 1.8 mM, 25 mM glucose, 10-30 mM Hepes. Adjustment of HBS buffers: Bf A Bf B Final stimulation pH (1 volume buffer A+1 volume buffer B)
Compounds were diluted from fresh stock solutions at 10 mM in DMSO to 2 mM and then used for serial dilutions in DMSO.
In general terms: cAMP levels reflect the balance of adenylyl cyclase and phosphodiesterase activity.

T1 sequence (P46093 whole entry): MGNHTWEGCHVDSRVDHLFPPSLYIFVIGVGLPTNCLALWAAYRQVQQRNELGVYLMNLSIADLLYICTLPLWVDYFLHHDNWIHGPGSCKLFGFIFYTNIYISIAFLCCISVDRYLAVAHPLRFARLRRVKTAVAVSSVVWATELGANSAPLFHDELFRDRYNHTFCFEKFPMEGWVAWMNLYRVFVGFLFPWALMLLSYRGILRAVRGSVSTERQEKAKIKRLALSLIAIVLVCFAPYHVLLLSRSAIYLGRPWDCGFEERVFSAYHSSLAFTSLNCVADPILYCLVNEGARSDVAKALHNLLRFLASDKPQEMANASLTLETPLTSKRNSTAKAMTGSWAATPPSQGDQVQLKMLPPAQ

As for `CCc1nc2c(C)cc(C)nc2n1Cc1ccc(/C=C/CN2CCN(CCOC)CC2)cc1` [Example 62, 2-Ethyl-3-(4-{(E)-3-[4-(2-methoxy-ethyl)-piperazin-1-yl]-propenyl}-benzyl)-5,7-dimethyl-3H-imidazo[4,5-b]pyridine dihydrochloride], the concentration for half-maximal inhibition (IC50) was determined as 552 nM.
Take `CCOCCN1CCN(C/C=C/c2ccc(Cn3c(CC)nc4c(C)cc(C)nc43)cc2)CC1` [Example 63, 3-(4-{(E)-3-[4-(2-Ethoxy-ethyl)-piperazin-1-yl]-propenyl}-benzyl)-2-ethyl-5,7-dimethyl-3H-imidazo[4,5-b]pyridine]: the midpoint of inhibition, the IC50, lay at 829 nM. Compared with the last compound, the IC50 is about 1.5-fold higher.
The result for `CCc1nc2c(C)cc(C)nc2n1Cc1ccc(/C=C/CN2CCN(CCCOC)CC2)cc1` [Example 64, 2-Ethyl-3-(4-{(E)-3-[4-(3-methoxy-propyl)-piperazin-1-yl]-propenyl}-benzyl)-5,7-dimethyl-3H-imidazo[4,5-b]pyridine dihydrochloride] reads 367 nM.
As for `CCc1nc2c(C)cc(C)nc2n1Cc1ccc(/C=C/CN2CCN(CC(=O)N(C)C)CC2)cc1` [Example 65, 2-(4-{(E)-3-[4-(2-Ethyl-5,7-dimethyl-imidazo[4,5-b]pyridin-3-ylmethyl)-phenyl]-allyl}-piperazin-1-yl)-N,N-dimethyl-acetamide], the figure is 647 nM; as for `CCc1nc2c(C)cc(C)nc2n1Cc1ccc(/C=C/CN2CCN(CCN3CCOCC3)CC2)cc1` [Example 66, 2-Ethyl-5,7-dimethyl-3-(4-{(E)-3-[4-(2-morpholin-4-yl-ethyl)-piperazin-1-yl]-propenyl}-benzyl)-3H-imidazo[4,5-b]pyridine trihydrochloride], 222 nM; as for `CCc1nc2c(C)cc(C)nc2n1Cc1ccc(/C=C/CN2CCN(Cc3ccc(OC)c(OC)c3)CC2)cc1` [Example 67, 3-(4-{(E)-3-[4-(3,4-Dimethoxy-benzyl)-piperazin-1-yl]-propenyl}-benzyl)-2-ethyl-5,7-dimethyl-3H-imidazo[4,5-b]pyridine trihydrochloride], 407 nM.
In turn, `CCc1nc2c(C)cc(C)nc2n1Cc1ccc(/C=C/CN2CCN(CCCF)CC2)cc1` [Example 68, 2-Ethyl-3-(4-{(E)-3-[4-(3-fluoro-propyl)-piperazin-1-yl]-propenyl}-benzyl)-5,7-dimethyl-3H-imidazo[4,5-b]pyridine] gave an IC50 of 535 nM.
As for `CCc1nc2c(C)cc(C)nc2n1Cc1ccc(/C=C/CN2CCN(CC)C(C)C2)cc1` (stereo not drawn) [Example 69, 2-Ethyl-3-{4-[(E)-3-(4ethyl-3-methyl-piperazin-1-yl)-propenyl]-benzyl}-5,7-dimethyl-3H-imidazo[4,5-b]pyridine dihydrochloride], the figure is 201 nM; as for `CCc1nc2c(C)cc(C)nc2n1Cc1ccc(/C=C/CN2CCN(C)C[C@@H]2C(C)C)cc1` [Example 70, 2-Ethyl-3-{4-[(E)-3-((S)-2-isopropyl-4-methyl-piperazin-1-yl)-propenyl]-benzyl}-5,7-dimethyl-3H-imidazo[4,5-b]pyridine dihydrochloride], 496 nM.
The result for `CCc1nc2c(C)cc(C)nc2n1Cc1ccc(/C=C/CN2CCN(C(C)C)C(C)C2)cc1` (stereo not drawn) [Example 71, 2-Ethyl-3-{4-[(E)-3-(4-isopropyl-3-methyl-piperazin-1-yl)-propenyl]-benzyl}-5,7-dimethyl-3H-imidazo[4,5-b]pyridine] reads 530 nM.
As for `CCc1nc2c(C)cc(C)nc2n1Cc1ccc(/C=C/CN2CCN(C(C)C)C(CC)C2)cc1` (stereo not drawn) [Example 72, 2-Ethyl-3-{4-[(E)-3-(3-ethyl-4-isopropyl-piperazin-1-yl)-propenyl]-benzyl}-5,7-dimethyl-3H-imidazo[4,5-b]pyridine dihydrochloride], the figure is 452 nM; as for `CCc1nc2c(C)cc(C)nc2n1Cc1ccc(/C=C/CN2CCN3CCCC3C2C)cc1` (stereo not drawn) [Example 73, 2-Ethyl-5,7-dimethyl-3-{4-[(E)-3-(1-methyl-hexahydro-pyrrolo[1,2-a]pyrazin-2-yl)-propenyl]-benzyl}-3H-imidazo[4,5-b]pyridine dihydrochloride], 887 nM.
With `CCc1nc2c(C)cc(C)nc2n1Cc1ccc(/C=C/CN2C[C@H]3C[C@@H]2CN3CC)cc1` [Example 74, 2-Ethyl-3-{4-[(E)-3-((1R,4R)-5-ethyl-2,5-diaza-bicyclo[2.2.1]hept-2-yl)-propenyl]-benzyl}-5,7-dimethyl-3H-imidazo[4,5-b]pyridine], the half-maximal inhibitory concentration (IC50) was 323 nM.
The result for `CCc1nc2c(C)cc(C)nc2n1Cc1ccc(/C=C/CN2C[C@H]3C[C@@H]2CN3CC(C)C)cc1` [Example 75, 2-Ethyl-3-{4-[(E)-3-((1R,4R)-5-isobutyl-2,5-diaza-bicyclo[2.2.1]hept-2-yl)-propenyl]-benzyl}-5,7-dimethyl-3H-imidazo[4,5-b]pyridine dihydrochloride] reads 146 nM; that for `CCc1nc2c(C)cc(C)nc2n1Cc1ccc(/C=C/CN2C[C@H]3C[C@@H]2CN3CC2CC2)cc1` [Example 76, 3-{4-[(E)-3-((1R,4R)-5-Cyclopropylmethyl-2,5-diaza-bicyclo[2.2.1]hept-2-yl)-propenyl]-benzyl}-2-ethyl-5,7-dimethyl-3H-imidazo[4,5-b]pyridine trihydrochloride], 111 nM.
As for `CCc1nc2c(C)cc(C)nc2n1Cc1ccc(/C=C/CN2CCOC(CNC(=O)OC(C)(C)C)C2)cc1` (stereo not drawn) [Example 77, (4-{(E)-3-[4-(2-Ethyl-5,7-dimethyl-imidazo[4,5-b]pyridin-3-ylmethyl)-phenyl]-allyl}-morpholin-2-ylmethyl)-carbamic acid tert-butyl ester], the figure is 512 nM; as for `CCc1nc2c(C)cc(C)nc2n1Cc1ccc(/C=C/CN2CCOC(CN)C2)cc1` (stereo not drawn) [Example 78, C-(4-{(E)-3-[4-(2-Ethyl-5,7-dimethyl-imidazo[4,5-b]pyridin-3-ylmethyl)-phenyl]-allyl}-morpholin-2-yl)-methylamine dihydrochloride], 114 nM.
As for `CCc1nc2c(C)cc(C)nc2n1Cc1ccc(/C=C/CN2CCOC(CNC(C)C)C2)cc1` (stereo not drawn) [Example 79, (4-{(E)-3-[4-(2-Ethyl-5,7-dimethyl-imidazo[4,5-b]pyridin-3-ylmethyl)-phenyl]-allyl}-morpholin-2-ylmethyl)-isopropyl-amine], the figure is 194 nM; as for `CCc1nc2c(C)cc(C)nc2n1Cc1ccc(/C=C/Cn2ccnc2)cc1` [Example 80, 2-Ethyl-3-[4-((E)-3-imidazol-1-yl-propenyl)-benzyl]-5,7-dimethyl-3H-imidazo[4,5-b]pyridine hydrochloride], 485 nM.
For the compound `CCCc1nc2c(C)cc(C)nc2n1Cc1ccc(/C=C/CN2CCC(N3CCCCC3)CC2)cc1` [Example 82, 1′-{(E)-3-[4-(5,7-Dimethyl-2-propyl-imidazo[4,5-b]pyridin-3-ylmethyl)-phenyl]-allyl}-[1,4′]bipiperidine dihydrochloride], 455 nM corresponded to half-maximal inhibition (IC50).
In turn, `Cc1cc(C)c2nc(C(C)C)n(Cc3ccc(/C=C/CN4CCC(N5CCCCC5)CC4)cc3)c2n1` [Example 83, 1′-{(E)-3-[4-(2-Isopropyl-5,7-dimethyl-imidazo[4,5-b]pyridin-3-ylmethyl)-phenyl]-allyl}-[1,4′]bipiperidinyl dihydrochloride] yielded a 50% inhibitory concentration (IC50) of 294 nM.

Broadly, the IC50 is the concentration that inhibits the measured activity by half. Low values mean greater potency, high ones weaker potency.

The values above are taken from patent US20090291942A1, “IMIDAZO PYRIDINE DERIVATIVES” (priority 2008, published 2009).
